From article PMC9110388, “Integrative structure determination reveals functional global flexibility for an ultra-multimodular arabinanase” (Communications Biology, 2022)

Biological target: T1, AbnA-WT (Geobacillus stearothermophilus, UniProt B3EYN2)
T1 sequence (B3EYN2 29-848): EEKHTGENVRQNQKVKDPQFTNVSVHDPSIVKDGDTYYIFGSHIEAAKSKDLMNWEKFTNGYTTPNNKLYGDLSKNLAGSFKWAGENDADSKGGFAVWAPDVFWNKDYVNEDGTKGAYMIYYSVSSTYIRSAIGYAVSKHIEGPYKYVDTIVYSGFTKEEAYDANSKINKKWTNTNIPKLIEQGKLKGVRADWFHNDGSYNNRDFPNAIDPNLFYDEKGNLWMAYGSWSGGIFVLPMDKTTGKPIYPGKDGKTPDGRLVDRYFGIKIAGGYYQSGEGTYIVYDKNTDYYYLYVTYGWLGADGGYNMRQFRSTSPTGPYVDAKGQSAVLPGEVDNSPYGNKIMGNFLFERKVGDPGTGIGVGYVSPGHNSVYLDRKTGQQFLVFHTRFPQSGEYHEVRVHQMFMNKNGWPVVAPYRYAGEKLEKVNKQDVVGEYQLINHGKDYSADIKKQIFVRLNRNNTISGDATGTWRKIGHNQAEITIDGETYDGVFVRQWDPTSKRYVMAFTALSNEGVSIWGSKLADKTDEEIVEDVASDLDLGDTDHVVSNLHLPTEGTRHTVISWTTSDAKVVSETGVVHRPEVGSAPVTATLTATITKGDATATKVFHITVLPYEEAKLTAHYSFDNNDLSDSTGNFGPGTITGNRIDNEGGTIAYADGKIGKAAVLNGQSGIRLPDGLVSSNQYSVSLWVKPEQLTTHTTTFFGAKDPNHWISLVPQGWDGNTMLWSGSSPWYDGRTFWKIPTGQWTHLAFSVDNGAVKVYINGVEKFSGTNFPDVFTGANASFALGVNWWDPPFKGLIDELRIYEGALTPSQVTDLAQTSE
Assay: X-ray crystal structure, soaked crystal, […] A
Assay type: binding
Conditions: bound in Domain4 (CBM-like) cleft, not in the active site; 5 mM soak ~30 s; 70% occupancy

With OC[C@@H]1O[C@@H](OC[C@@H]2O[C@@H](OC[C@@H]3O[C@@H](OC[C@@H]4O[C@@H](OC[C@@H]5OC(O)[C@H](O)[C@H]5O)[C@H](O)[C@H]4O)[C@H](O)[C@H]3O)[C@H](O)[C@H]2O)[C@H](O)[C@H]1O (stereo partly shown) [A5, arabinopentaose] the “X-ray crystal structure, soaked crystal, 2.95 A” value was “extra density was observed in Domain4, and this could be clearly modelled as an arabinopentaose molecule”.
